≈ marks a conversion by molar mass, not a printed value. Where a name gives a salt, the structure may show the parent alone. Where only a bound is given, the exact number is not on record here.

The nature of data set [1]: Preliminary acute toxicities in mice (Table H). The following applies: mouse, in vivo, dihydrochloride.
The subject of data set [2] is Staphylococcus aureus 308A-1. Nature of the data set: Therapeutic effect on infectious disease in mice (Table G). Format: in vivo. The following applies: bacteria infected intraperitoneally.
For data set [3], the system named is Pseudomonas aeruginosa P-9. The description is as above. Type of data set: in vivo. The following applies: P9, sc, dihydrochloride, bacteria infected intraperitoneally, subcutaneous administration.
For data set [4], the system named is Streptococcus pyogenes E-14. The experiment in a line: Antibacterial spectrum, minimal inhibitory concentration, agar dilution (Table E). Format: cell-based. The following applies: E14, dihydrochloride, medium B--TSA (10% horse serum/TSA), inoculum a loopful of 10^8 CFU/ml. From the text: (§1) Tables D and E show the antibacterial spectra of TAN-749A, B, C and D (dihydrochlorides) against various microorganisms.
(§2) (Note 1) Determined by the agar dilution method. Inoculum size was a
(§3) loopful of 10^8 CFU/ml.
(§4) (Note 2) TSA (Tripticase Soy Agar; Baltimore Biological Laboratories,
(§5) USA), B--TSA; 10% horse serum/TSA

Data set [5] deals with Pseudomonas aeruginosa P9. The data set is described as above. Type of data set: cell-based. The following applies: dihydrochloride, medium B--TSA (10% horse serum/TSA), inoculum a loopful of 10^8 CFU/ml.
Text: as §1, §2, §3, §4, §5

Data set [6] relates to Staphylococcus aureus 308A-1. The data set is described as above. The following applies: 308A1, dihydrochloride, medium TSA, inoculum a loopful of 10^8 CFU/ml. Format: cell-based.
Text: as §1, §2, §3, §4, §5

Data set [7] deals with Escherichia coli T7. The data set is described as above. The following applies: dihydrochloride, medium TSA, inoculum a loopful of 10^8 CFU/ml. Type of data set: cell-based.
Text: as §1, §2, §3, §4, §5

Data set [8] relates to Staphylococcus aureus FDA209P. The description is as above. Format: cell-based. The following applies: dihydrochloride, medium B--TSA (10% horse serum/TSA), inoculum a loopful of 10^8 CFU/ml.
Text: as §1, §2, §3, §4, §5

The test system of data set [9] is Proteus morganii IFO 3168. The experiment in a line: Antibacterial spectrum, minimal inhibitory concentration (Table D). Type of data set: cell-based. As to conditions: Morganella morganii, IFO3168; dihydrochloride; Bacto-Antibiotic Medium 3 agar; inoculum a loopful of approx. 10^6 CFU/ml. The procedure: as §1
(§6) Bacto-Antibiotic Medium 3
(§7) Distilled water 1,000 ml
(§8) Inoculum size a loopful of approx.

The subject of data set [10] is Escherichia coli NIHJ JC2. The description is as above. Type of data set: cell-based. The following applies: NIHJJC2, dihydrochloride, Bacto-Antibiotic Medium 3 agar, inoculum a loopful of approx. 10^6 CFU/ml. The procedure:
as §1, §6, §7, §8

Data set [11] deals with Staphylococcus aureus FDA 209P. The description is as above. Type of data set: cell-based. The following applies: FDA209P, dihydrochloride, Bacto-Antibiotic Medium 3 agar, inoculum a loopful of approx. 10^6 CFU/ml. The procedure:
as §1, §6, §7, §8

Data set [12] deals with Acinetobacter calcoaceticus IFO 13006. The data set is described as above. Type of data set: cell-based. The following applies: IFO13006, dihydrochloride, Bacto-Antibiotic Medium 3 agar, inoculum a loopful of approx. 10^6 CFU/ml. As to the method:
as §1, §6, §7, §8

Data set [13] concerns Alcaligenes faecalis IFO 13111. The data set is described as above. Format: cell-based. As to conditions: IFO13111, dihydrochloride, Bacto-Antibiotic Medium 3 agar, inoculum a loopful of approx. 10^6 CFU/ml. The procedure:
as §1, §6, §7, §8

Data set [14] has as its system Citrobacter freundii IFO 12681. The data set is described as above. Type of data set: cell-based. The following applies: IFO12681, dihydrochloride, Bacto-Antibiotic Medium 3 agar, inoculum a loopful of approx. 10^6 CFU/ml. As to the method: as §1, §6, §7, §8
The subject of data set [15] is Proteus vulgaris IFO 3988. Described as above. Type of data set: cell-based. As to conditions: IFO3988, dihydrochloride, Bacto-Antibiotic Medium 3 agar, inoculum a loopful of approx. 10^6 CFU/ml. As to the method: as §1, §6, §7, §8
Data set [16] has as its system Pseudomonas aeruginosa IFO 3080. The data set is described as above. Format: cell-based. As to conditions: IFO3080, dihydrochloride, Bacto-Antibiotic Medium 3 agar, inoculum a loopful of approx. 10^6 CFU/ml. As to the method:
as §1, §6, §7, §8

Data set [17] concerns Klebsiella pneumoniae IFO 3317. Described as above. Format: cell-based. As to conditions: IFO3317, dihydrochloride, Bacto-Antibiotic Medium 3 agar, inoculum a loopful of approx. 10^6 CFU/ml. The procedure:
as §1, §6, §7, §8

Data set [18] has as its system Escherichia coli 0-111. The experiment in a line: Therapeutic effect on infectious disease in mice (Table G). Format: in vivo. The following applies: Escherichia coli, 0111, sc, dihydrochloride, bacteria infected intraperitoneally, subcutaneous administration.
Data set [19] relates to Escherichia coli T7. The data set is described as above. Format: in vivo. As to conditions: T7, sc, dihydrochloride, bacteria infected intraperitoneally, subcutaneous administration.
Data set [20] concerns S. aureus 308A-1. The experiment in a line: Antibacterial activity against gram-positive bacteria, MIC (Table 3). Type of data set: cell-based. As to conditions: Staphylococcus aureus, 308A1; Tripticase Soy Agar; inoculum size 10^8 cfu/ml. From the text:
The antibacterial activities against gram-positive bacteria (S. aureus 308A-1) of some compounds of the invention are as shown in Table 3.
*Medium: Tripticase Soy Agar Inoculum size: 10^8 cfu/ml

Data set [21] can be described thus: pKa' value. Format: physicochemical. As to conditions: dihydrochloride.
Data set [22] can be described thus: Solubility. Type of data set: physicochemical.
For data set [23], the system named is S. aureus 308A-1. Nature of the data set: Antibacterial activity in mice, ED50 (Table 3). Format: in vivo. As to conditions: Staphylococcus aureus, 308A1, sc, S.C. From the text:
The antibacterial activities against gram-positive bacteria (S. aureus […]-1) of some compounds of the invention are as shown in Table 3. | **mice, S.C.,

The mark [24] stands for this setting: 308A1, sc, dihydrochloride, subcutaneous administration.

Take `C/C=C\C=C\C(=O)NC(C)C(O)CC(N)CC(=O)NCCC(=N)N` (stereo not drawn) [II]: the LD50 in data set [1] (sc, subcutaneous) fell in the range of 400 to 800 mg/kg. Moreover, the ED50 in data set [2] (308A1, dihydrochloride, oral administration) worked out at 16.2 mg/kg; in [2] (setting [24]), 0.351 mg/kg; in data set [3] it was 61.4 mg/kg; in [18] it was 27.3 mg/kg. Also, the MIC amounted to 6.25 µg/mL (≈ 18.4 µM) in [4]; 50 µg/mL (≈ 147 µM) in data set [5]; 3.13 µg/mL (≈ 9.22 µM) in data set [6]; 12.5 µg/mL (≈ 36.8 µM) in data set [7]; 3.13 µg/mL (≈ 9.22 µM) in [8]; 100 µg/mL (≈ 295 µM) in [9]. Besides, the MIC was > 100 µg/mL in [10]; 12.5 µg/mL (≈ 36.8 µM) in data set [11]; 50 µg/mL (≈ 147 µM) in data set [12]; 6.25 µg/mL (≈ 18.4 µM) in data set [13]; ≥ 100 µg/mL in [14]; 25 µg/mL (≈ 73.7 µM) in data set [15]. Also, the results for the MIC in data set [16] and in data set [17] were 50 µg/mL (≈ 147 µM) and 100 µg/mL (≈ 295 µM), respectively.

As to `C/C=C/C=C/C(=O)NC(C)C(O)CC(N)CC(=O)NCCC(=N)N` (stereo not drawn) [IV], the ED50 in [2] (setting [24]) was < 6.25 mg/kg. Moreover, the MIC is 25 µg/mL (≈ 73.7 µM) in [4]; 100 µg/mL (≈ 295 µM) in data set [5]; 25 µg/mL (≈ 73.7 µM) in data set [6]; 50 µg/mL (≈ 147 µM) in data set [7]; 25 µg/mL (≈ 73.7 µM) in data set [8]; > 100 µg/mL in [9]. The MIC was > 100 µg/mL in [10]; 50 µg/mL (≈ 147 µM) in data set [11]; > 100 µg/mL in data set [12]; 6.25 µg/mL (≈ 18.4 µM) in data set [13]; > 100 µg/mL in [14]; 100 µg/mL (≈ 295 µM) in data set [15]. The minimal inhibitory concentration (MIC) in [16] was 100 µg/mL (≈ 295 µM); in data set [17] it was > 100 µg/mL.

Take `C/C=C\C=C\C(=O)NCC(O)CC(N)CC(=O)NCCC(=N)N` (stereo not drawn) [I]: the LD50 is 2000 to 4000 mg/kg in data set [1] (oral) and ~500 mg/kg in data set [1] (sc, subcutaneous). The ED50 in data set [19] was determined as 50.8 mg/kg; in data set [2] (setting [24]), 1.31 mg/kg; in data set [18], 67.2 mg/kg. Moreover, the MIC in data set [4] is 3.13 µg/mL (≈ 9.62 µM); in data set [5], 100 µg/mL (≈ 307 µM); in [6], 12.5 µg/mL (≈ 38.4 µM); in data set [7], 50 µg/mL (≈ 154 µM); in data set [8], 12.5 µg/mL (≈ 38.4 µM); in data set [9] it was > 100 µg/mL. Besides, the MIC is > 100 µg/mL in data set [10]; 50 µg/mL (≈ 154 µM) in data set [11]; 25 µg/mL (≈ 76.8 µM) in data set [12]; 3.13 µg/mL (≈ 9.62 µM) in data set [13]; ≥ 100 µg/mL in data set [14]; 100 µg/mL (≈ 307 µM) in [15]. In data set [17], the MIC is > 100 µg/mL.

On to `CN(CC(=O)O)NC(=O)C[C@H](N)C[C@@H](O)CN` [Negamycin, 2-(3R,5R)-3,6-diamino-5-hydroxyhexanoyl-1-methylhydrazinoacetic acid, reference compound], for which, in data set [20], the MIC is > 100 µg/mL.

Consider `C/C=C\C=C\C(=O)NCC(O)CC(N)CC(=O)NCCC(=N)N` (stereo not drawn) [TAN-749A dihydrochloride], for which the pKa in [21] came out at 8. Also, in data set [22] (dihydrochloride), the “Solubility: Soluble” value was “Water, Dimethyl sulfoxide, Methanol” and the “Solubility: Sparingly soluble” value is on record as “Acetone, Ethyl acetate, Diethyl ether”.

For the compound `C/C=C\C=C\C(=O)NC(C)C(O)CC(N)CC(=O)NCCC(=N)N` (stereo not drawn) [TAN-749B dihydrochloride], the pKa in [21] is 8.05. Besides, in data set [22], the “Solubility (by reference to TAN-749A dihydrochloride)” value was “Same with TAN-749A dihydrochloride”.

With `C/C=C/C=C/C(=O)NCC(O)CC(N)CC(=O)NCCC(=N)N` (stereo not drawn) [TAN-749C dihydrochloride], in [22], the “Solubility (by reference to TAN-749A dihydrochloride)” value was “Same with TAN-749A dihydrochloride”.

As for `C/C=C/C=C/C(=O)NC(C)C(O)CC(N)CC(=O)NCCC(=N)N` (stereo not drawn) [TAN-749D dihydrochloride], the “Solubility (by reference to TAN-749A dihydrochloride)” value in data set [22] was “Same with TAN-749A dihydrochloride”.

As to `C/C=C\C=C\C(=O)NCC(O)CC(CC(=O)NCCC(=N)N)NC` (stereo not drawn) [compound 80], the minimum inhibitory concentration (MIC) in data set [20] is > 100 µg/mL.

In the case of `C/C=C\C=C\C(=O)NCC(O)CC(CC(=O)NCCC(=N)N)NCC` (stereo not drawn) [compound 82], in [20], the MIC is > 100 µg/mL. The 50% effect level in data set [23] (ED50) was put at a dose of 25 mg/kg.

Usually LD50 stands for the dose at which mortality reaches 50%. The ED50 is the dose that gives a 50% effect, or the effect in half of the subjects. A lower ED50 goes with an effect at a small dose. A word on the MIC: it is the lowest concentration found to suppress growth. The pKa is the pH at which an ionisable group is half protonated. Low readings indicate a group that gives up its proton readily, high ones a group that holds its proton tightly.

The record behind these values is US4906659A, “Antibiotic tan-749, its derivatives, production and use thereof” (Takeda Chemical Industries, Ltd., priority 1985, dated 1990).
